# Reference: patent US7294627B2, “Chemical compounds” (Eli Lilly and Company, priority 2001, dated 2007)
# Biological target: T1, human factor Xa (Homo sapiens, UniProt P00742)
# T1 construct: 25 μL human factor Xa (32 nM in 0.03 M tris, 0.15 M NaCl, 1 mg/mL HSA); purchased Enzyme Research Laboratories (South Bend, Ind., USA)
# Experiment: Enzyme inhibition assay (apparent Kass, chromogenic substrate hydrolysis)
# Type: biochemical
# Settings: apparent association constant, human factor Xa 3.2 nM, BzIleGluGlyArgpNA substrate; 1/appKass=app Ki
# Protocol: Human factor Xa and human thrombin are purchased from Enzyme Research Laboratories (South Bend, Ind., USA). Other proteases are from other commercial sources. Chromogenic para-nitroanilide peptide protease substrates are purchased from Midwest Biotech (Fishers, Ind., USA).
# The binding affinities for human factor Xa are measured as apparent association constants (Kass) derived from protease inhibition kinetics as described previously.^a,b,c,d The apparent Kass values are obtained using automated (BioMek-1000) dilutions of inhibitors (Kass determinations are performed in triplicate at each of four-eight inhibitor concentrations) into 96-well plates and chromogenic substrate hydrolysis rates determined at 405 nm using a Thermomax plate reader from Molecular Devices (San Francisco). […] [Free Xa] and [bound Xa] are determined from linear standard curves on the same plate by use of SoftmaxPro software for each inhibitor concentration and apparent Kass calculated for each inhibitor concentration which produced hydrolysis inhibition between 20% and 80% of the control (3.2 nM factor Xa): apparent Kass=[E:I]/[Ef][If]=[Eb]/[Ef][I^o−I^b]. […] The variability of mean apparent Kass values determined at the single substrate concentration is +/−15%. […]
# T1 sequence (P00742 235-488 limits assumed): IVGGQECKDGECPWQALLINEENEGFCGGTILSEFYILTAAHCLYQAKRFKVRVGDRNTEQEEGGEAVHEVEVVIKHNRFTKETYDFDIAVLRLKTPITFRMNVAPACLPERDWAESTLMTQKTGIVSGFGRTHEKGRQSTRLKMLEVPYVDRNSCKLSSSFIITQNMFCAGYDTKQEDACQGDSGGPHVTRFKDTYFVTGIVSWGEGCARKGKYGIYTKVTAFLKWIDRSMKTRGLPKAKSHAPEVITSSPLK
# T1 sequence (P00742 41-179 partner limits assumed): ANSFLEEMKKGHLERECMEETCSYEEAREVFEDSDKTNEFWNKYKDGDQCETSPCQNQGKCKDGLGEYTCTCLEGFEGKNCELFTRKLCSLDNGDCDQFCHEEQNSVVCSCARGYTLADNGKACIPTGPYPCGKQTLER
structure (smiles),measurement,value
COc1ccc(C(=O)NC(C(=O)N2CCC(CN(C)c3ccncc3)CC2)c2ccccc2Cl)cc1.Cl (racemic) [Example 7],Kass,~1.22e+08 L/mol
